Legend:
Assay type in all cases: organism-based
Phaseolus vulgaris [1] = assay: Phytotoxicity against Phaseolus vulgaris (Otebo dry bean) assessed as reduction in shoot dry weight applied pre-emergence relative to control; design: scale not given: the % may be the effect or the level left; settings: in vivo
Phaseolus vulgaris [2] = assay: Phytotoxicity against Phaseolus vulgaris (White dry bean) assessed as reduction in shoot dry weight applied pre-emergence relative to control; design: scale not given: the % may be the effect or the level left; settings: in vivo
Phaseolus vulgaris [3] = assay: Phytotoxicity against Phaseolus vulgaris (White dry bean) assessed as visual crop injury applied pre-emergence relative to control; settings: in vivo
Phaseolus vulgaris [4] = assay: Phytotoxicity against Phaseolus vulgaris (Pinto dry bean) assessed as reduction in shoot dry weight applied pre-emergence relative to control; design: scale not given: the % may be the effect or the level left; settings: in vivo
Phaseolus vulgaris [5] = assay: Phytotoxicity against Phaseolus vulgaris (Yellow eye dry bean) assessed as reduction in plant height applied pre-emergence relative to control; design: scale not given: the % may be the effect or the level left; settings: in vivo
Phaseolus vulgaris [6] = assay: Phytotoxicity against Phaseolus vulgaris (Black dry bean) assessed as reduction in shoot dry weight applied pre-emergence relative to control; design: scale not given: the % may be the effect or the level left; settings: in vivo
Phaseolus vulgaris [7] = assay: Phytotoxicity against Phaseolus vulgaris (Otebo dry bean) assessed as reduction in plant height applied pre-emergence relative to control; design: scale not given: the % may be the effect or the level left; settings: in vivo
Phaseolus vulgaris [8] = assay: Phytotoxicity against Phaseolus vulgaris (Pinto dry bean) assessed as reduction in plant height applied pre-emergence relative to control; design: scale not given: the % may be the effect or the level left; settings: in vivo
Phaseolus vulgaris [9] = assay: Phytotoxicity against Phaseolus vulgaris (White dry bean) assessed as reduction in plant height applied pre-emergence relative to control; design: scale not given: the % may be the effect or the level left; settings: in vivo
Phaseolus vulgaris [10] = assay: Phytotoxicity against Phaseolus vulgaris (Cranberry dry bean) assessed as visual crop injury applied pre-emergence relative to control; settings: in vivo
Phaseolus vulgaris [11] = assay: Phytotoxicity against Phaseolus vulgaris (Yellow eye dry bean) assessed as reduction in shoot dry weight applied pre-emergence relative to control; design: scale not given: the % may be the effect or the level left; settings: in vivo
Phaseolus vulgaris [12] = assay: Phytotoxicity against Phaseolus vulgaris (Black dry bean) assessed as reduction in plant height applied pre-emergence relative to control; design: scale not given: the % may be the effect or the level left; settings: in vivo
Phaseolus vulgaris [13] = assay: Phytotoxicity against Phaseolus vulgaris (White dry bean) assessed as visual crop injury relative to control; settings: in vivo
Phaseolus vulgaris [14] = assay: Phytotoxicity against Phaseolus vulgaris (Kidney) dry bean assessed as visual crop injury relative to control; settings: in vivo
Phaseolus vulgaris [15] = assay: Phytotoxicity against Phaseolus vulgaris (White dry bean) assessed as visual crop injury applied post-emergence relative to control; settings: in vivo, other
Phaseolus vulgaris [16] = assay: Phytotoxicity against Phaseolus vulgaris (Kidney dry bean) assessed as visual crop injury applied […] relative to control; settings: in vivo
Phaseolus vulgaris [17] = assay: Phytotoxicity against Phaseolus vulgaris (Pink dry bean) assessed as visual crop injury applied post-emergence relative to control; settings: in vivo

SMILES | Activity (Phaseolus vulgaris [3]) [%] | Activity (Phaseolus vulgaris [6]) [%] | Activity (Phaseolus vulgaris [9]) [%] | Activity (Phaseolus vulgaris [10]) [%] | Activity (Phaseolus vulgaris [12]) [%] | Activity (Phaseolus vulgaris [16]) [%] | further results
CON(C)C(=O)Nc1ccc(Cl)c(Cl)c1 [LINURON] | 49 | 26 | 24 | 4 | 24 | – | Activity (Phaseolus vulgaris [1]): 26%; Activity (Phaseolus vulgaris [2]): 26%; Activity (Phaseolus vulgaris [4]): 26%; Activity (Phaseolus vulgaris [5]): 24%; Activity (Phaseolus vulgaris [7]): 24%; Activity (Phaseolus vulgaris [8]): 24%; Activity (Phaseolus vulgaris [11]): 26%
CCc1cccc(CC)c1N(COC)C(=O)CCl [ALACHLOR] | – | – | – | – | – | – | Activity (Phaseolus vulgaris [13]): 5.6%; Activity (Phaseolus vulgaris [14]): 0.5%
CCc1cccc(C)c1N(C(=O)CCl)[C@@H](C)COC [S-METOLACHLOR] | – | 16 | – | – | – | – | –
C#CCN1C(=O)COc2cc(F)c(N3C(=O)C4=C(CCCC4)C3=O)cc21 [FLUMIOXAZIN] | 17 | – | 28 | 4 | 23 | – | –
CCc1cnc(C2=NC(C)(C(C)C)C(=O)N2)c(C(=O)O)c1 (stereo not given) [IMAZETHAPYR] | – | – | 40 | – | 40 | 1.8 | Activity (Phaseolus vulgaris [15]): 11%
CS(=O)(=O)NC(=O)c1cc(Oc2ccc(C(F)(F)F)cc2Cl)ccc1[N+](=O)[O-] [FOMESAFEN] | – | – | – | – | – | 1.4 | Activity (Phaseolus vulgaris [17]): 5%

Source: ChEMBL document CHEMBL3045522, “Responses of dry beans (Phaseolus vulgaris L.) to sulfentrazone” (Crop Prot, 2007)
